Measurements reported in article PMC10482691, “LTP induction by structural rather than enzymatic functions of CaMKII” (Nature, 2023).
Values joined by “and” are separate entries in the source; they are usually repeats but may differ in a detail not shown here. Equal values may be shown once.

Key:
Ret(h) = Ret(h) (Homo sapiens, UniProt P07949); experiment: Kinase selectivity panel (residual activity at 1 μM); format: biochemical; settings: inhibitor at 1 μM; read-out: residual kinase activity in % of maximal activity
Pim-1(h) = Pim-1(h) (Homo sapiens, UniProt P11309); experiment: as above; format: biochemical; settings: inhibitor at 1 μM; read-out: residual kinase activity in % of maximal activity
[1] = target: GFP–CaMKII WT / mCh-GluN2B-c tail in HEK293 cells (Homo sapiens, UniProt Q9UQM7); experiment: Ionomycin-induced colocalization of GFP–CaMKII WT and mCherry-2BC in HEK293 cells; format: cell-based; settings: 10 μM AS283
Method: HEK cells were grown and transfected with expression vectors for GFP–CaMKII mutants and pDisplay-mCh-GluN2B-c tail (2BC) as previously described[24],[57]; the GluN2B construct used included an S1303A mutation to avoid potential complications by differential phosphorylation of this regulatory site[13],[27] in the different conditions with or without kinase inhibitors. GFP–CaMKII colocalization with GluN2B in response to a Ca^2+ stimulus induced by 10 μM ionomycin was monitored for 5–10 min at 32 °C in imaging buffer (0.87× Hanks Balanced Salt Solution, 25 mM HEPES, pH 7.4, 2 mM glucose, 2 mM CaCl2, 1 mM MgCl2) by fluorescence microscopy. Images were acquired on a Zeiss Axiovert 200M equipped with a climate control chamber using SlideBook software (Intelligent Imaging Innovations; v.6.0). Colocalization analysis was performed by calculating the Pearson’s correlation (correlation index) with ImageJ of pDisplay-mCh-2BC and GFP–CaMKII within the cytoplasm of HEK cells after background subtraction.

Flt3(h) = Flt3(h) (Homo sapiens, UniProt P36888); experiment: Kinase selectivity panel (residual activity at 1 μM); format: biochemical; settings: inhibitor at 1 μM; read-out: residual kinase activity in % of maximal activity
CDK2/cyclinE(h) = CDK2/cyclinE(h) (Homo sapiens, UniProt P24941); experiment: as above; format: biochemical; settings: inhibitor at 1 μM
MAPK1(h) = MAPK1(h) (Homo sapiens, UniProt P27361); experiment: as above; format: biochemical; settings: inhibitor at 1 μM; read-out: residual kinase activity in % of maximal activity
[2] = test system: GFP–paCaMKII T286A in hippocampal neurons; experiment: paCaMKII T286A photoactivation: synaptic enrichment in hippocampal neurons; format: cell-based
Method: Neurons were wrapped in aluminium foil immediately following transfection and only exposed to red light in imaging. One image was then taken of each neuron to serve as a pre-photoactivation baseline. Immediately following this baseline image, paCaMKII was globally photoactivated with a 405 nm laser pulse (100 ms exposure, 75% laser power) once every 10 s for a total of 60 s. Neurons were then imaged 15 min after stimulation and assessed for CaMKII synaptic enrichment and dendritic spine growth.
Neuronal cultures were transfected on DIV 15–18 and imaged 24–48 h later. […] Two-dimensional maximum-intensity projection images were then generated and analysed using a custom-build programme in ImageJ. The programme utilizes combinatorial thresholding to mask regions of the cell that contain high-intensity puncta of postsynaptic density protein 95 (PSD95; a marker of the post-synaptic side of excitatory synapses in dendritic spines) and regions of the dendritic shaft that contain no fluorescence intensity of PSD95. As a measure of synaptic enrichment, the ratio of mean CaMKII fluorescence intensity of the PSD95 mask to the mean CaMKII fluorescence intensity in the dendritic shaft mask is measured. Spine growth was assessed by measuring the changes in mCherry cell fill fluorescence intensity within dendritic spine divided by the initial fluorescence intensity (F/F0).

[3] = test system: CA3–CA1 Schaffer collateral pathway LTP; experiment: LTP at CA3–CA1 synapse, field recordings in acute hippocampal slices of WT mice; format: cell-based, mouse; settings: for LTP quantification (fEPSP slope, last 10 min post-HFS, normalized to baseline): 15 min before HFS to 5 min after

Sequence of Pim-1(h) (P11309 whole entry): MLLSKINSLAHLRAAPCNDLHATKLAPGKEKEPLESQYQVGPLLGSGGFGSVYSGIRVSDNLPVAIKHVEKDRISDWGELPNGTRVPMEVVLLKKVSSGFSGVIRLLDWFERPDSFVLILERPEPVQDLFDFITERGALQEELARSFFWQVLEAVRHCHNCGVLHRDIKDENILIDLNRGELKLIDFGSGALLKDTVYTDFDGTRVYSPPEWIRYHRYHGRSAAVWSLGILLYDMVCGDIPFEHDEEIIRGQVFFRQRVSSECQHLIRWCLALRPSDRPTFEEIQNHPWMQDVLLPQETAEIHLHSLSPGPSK
Sequence of Flt3(h) (P36888 27-993): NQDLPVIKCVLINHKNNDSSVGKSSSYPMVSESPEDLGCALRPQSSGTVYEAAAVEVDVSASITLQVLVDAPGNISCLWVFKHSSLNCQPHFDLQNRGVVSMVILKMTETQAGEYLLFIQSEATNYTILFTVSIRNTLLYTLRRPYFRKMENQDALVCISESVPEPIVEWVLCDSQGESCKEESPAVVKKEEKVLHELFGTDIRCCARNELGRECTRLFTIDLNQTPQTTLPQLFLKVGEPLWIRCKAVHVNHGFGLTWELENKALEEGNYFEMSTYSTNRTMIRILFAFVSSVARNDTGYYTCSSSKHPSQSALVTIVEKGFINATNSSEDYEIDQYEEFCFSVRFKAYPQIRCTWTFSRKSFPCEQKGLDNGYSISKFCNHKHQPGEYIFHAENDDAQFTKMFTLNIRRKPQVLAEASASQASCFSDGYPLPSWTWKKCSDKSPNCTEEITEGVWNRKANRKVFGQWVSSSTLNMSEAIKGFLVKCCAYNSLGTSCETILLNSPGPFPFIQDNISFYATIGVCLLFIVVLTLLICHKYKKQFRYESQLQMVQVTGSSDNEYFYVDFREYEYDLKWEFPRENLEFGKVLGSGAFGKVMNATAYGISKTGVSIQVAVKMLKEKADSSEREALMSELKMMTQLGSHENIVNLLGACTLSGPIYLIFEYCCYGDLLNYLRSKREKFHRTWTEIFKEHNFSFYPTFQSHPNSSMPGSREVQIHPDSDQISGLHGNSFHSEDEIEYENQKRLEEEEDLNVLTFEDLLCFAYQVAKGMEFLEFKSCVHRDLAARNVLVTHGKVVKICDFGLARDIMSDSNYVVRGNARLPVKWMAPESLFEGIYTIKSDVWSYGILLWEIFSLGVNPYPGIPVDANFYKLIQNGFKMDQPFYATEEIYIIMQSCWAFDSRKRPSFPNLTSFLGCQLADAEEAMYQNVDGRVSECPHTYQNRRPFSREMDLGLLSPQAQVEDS
Sequence of Ret(h) (P07949 29-1114): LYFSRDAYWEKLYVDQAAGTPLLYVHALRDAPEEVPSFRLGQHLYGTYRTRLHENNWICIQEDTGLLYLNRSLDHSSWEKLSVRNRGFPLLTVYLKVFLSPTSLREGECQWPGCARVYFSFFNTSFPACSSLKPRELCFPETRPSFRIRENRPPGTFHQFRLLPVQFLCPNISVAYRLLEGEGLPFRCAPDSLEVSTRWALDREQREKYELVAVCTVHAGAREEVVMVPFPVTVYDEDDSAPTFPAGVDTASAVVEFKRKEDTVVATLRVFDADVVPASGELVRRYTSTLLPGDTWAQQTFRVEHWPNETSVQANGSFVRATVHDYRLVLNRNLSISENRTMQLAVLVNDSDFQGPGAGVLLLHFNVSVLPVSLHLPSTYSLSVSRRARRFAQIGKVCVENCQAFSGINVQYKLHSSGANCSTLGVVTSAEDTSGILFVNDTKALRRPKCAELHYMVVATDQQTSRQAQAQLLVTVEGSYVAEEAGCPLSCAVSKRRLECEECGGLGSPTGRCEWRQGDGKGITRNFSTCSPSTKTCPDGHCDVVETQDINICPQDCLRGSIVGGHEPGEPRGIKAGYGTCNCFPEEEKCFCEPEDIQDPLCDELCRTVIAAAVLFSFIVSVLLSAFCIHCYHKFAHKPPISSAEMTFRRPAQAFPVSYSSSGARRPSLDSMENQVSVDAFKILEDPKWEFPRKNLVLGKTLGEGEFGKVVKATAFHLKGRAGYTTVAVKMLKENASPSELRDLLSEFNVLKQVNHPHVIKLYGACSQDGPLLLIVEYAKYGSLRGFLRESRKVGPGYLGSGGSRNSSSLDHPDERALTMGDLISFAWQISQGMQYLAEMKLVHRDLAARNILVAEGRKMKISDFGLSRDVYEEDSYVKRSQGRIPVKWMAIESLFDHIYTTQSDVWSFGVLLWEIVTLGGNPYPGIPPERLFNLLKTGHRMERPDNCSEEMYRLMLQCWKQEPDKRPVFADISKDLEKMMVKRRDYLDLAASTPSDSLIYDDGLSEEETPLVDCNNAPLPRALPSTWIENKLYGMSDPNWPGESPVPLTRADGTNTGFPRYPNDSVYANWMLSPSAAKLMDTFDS
Sequence of MAPK1(h) (P27361 whole entry): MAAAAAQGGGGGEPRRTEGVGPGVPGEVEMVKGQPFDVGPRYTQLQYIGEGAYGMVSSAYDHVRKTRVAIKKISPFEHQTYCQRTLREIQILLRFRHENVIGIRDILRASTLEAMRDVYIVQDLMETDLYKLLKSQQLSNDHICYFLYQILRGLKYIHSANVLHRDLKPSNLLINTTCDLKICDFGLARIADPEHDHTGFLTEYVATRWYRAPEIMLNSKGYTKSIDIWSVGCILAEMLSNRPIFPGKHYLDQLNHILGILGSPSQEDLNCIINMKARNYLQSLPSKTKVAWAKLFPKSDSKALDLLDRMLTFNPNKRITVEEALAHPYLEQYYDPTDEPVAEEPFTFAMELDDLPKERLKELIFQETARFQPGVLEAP

NCCNc1cccc(-c2ccnc3[nH]c4ccccc4c23)c1 [AS283]
remaining activity at 1 µM (Ret(h)): 44%
remaining activity at 1 µM (Pim-1(h)): 50%
effect on CaMKII binding to GluN2B in colocalization assay [1]: did not inhibit
remaining activity at 1 µM (Flt3(h)): 3%
residual kinase activity in % of maximal activity (CDK2/cyclinE(h)): 41%
remaining activity at 1 µM (MAPK1(h)): 102%
CaMKII movement after photoactivation of paCaMKII T286A ([2]; AS283 10 μM): robust CaMKII movement
synaptic enrichment after photoactivation (sheet 6b) ([2]; paCaMKII T286A + AS283, individual neurons): 1.441 and 1.27 and 1.593 and 1.399 and 1.769 and 1.014 and 1.25 and 1.28 and 1.281 and 1.778
LTP quantification (fEPSP slope, last 10 min post-HFS, normalized to baseline) ([3]; AS283 10uM): 152.979% and 135.393% and 153.277%
fEPSP slope (normalized to baseline) ([3]; AS283 10uM, Time (min) -4): 104.452% and 102.587% and 97.9392%
fEPSP slope (normalized to baseline) ([3]; AS283 10uM, Time (min) -5): 97.455% and 97.2289% and 102.244%
fEPSP slope (normalized to baseline) ([3]; AS283 10uM, Time (min) -6): 99.4541% and 99.1179% and 105.524%
fEPSP slope (normalized to baseline) ([3]; AS283 10uM, Time (min) -7): 101.753% and 102.819% and 102.999%
fEPSP slope (normalized to baseline) ([3]; AS283 10uM, Time (min) -8): 95.5559% and 104.449% and 104.231%
fEPSP slope (normalized to baseline) ([3]; AS283 10uM, Time (min) -9): 92.9571% and 97.0204% and 97.7789%
fEPSP slope (normalized to baseline) ([3]; AS283 10uM, Time (min) -10): 99.8539% and 98.6506% and 100.547%
fEPSP slope (normalized to baseline) ([3]; AS283 10uM, Time (min) -11): 103.952% and 101.834% and 101.778%
fEPSP slope (normalized to baseline) ([3]; AS283 10uM, Time (min) -12): 101.553% and 101.652% and 98.229%
fEPSP slope (normalized to baseline) ([3]; AS283 10uM, Time (min) -13): 102.353% and 99.9177% and 99.6311%
LTP quantification (fEPSP slope, last 10 min post-HFS, normalized to baseline) ([3]; AS283 30uM): 160.389% and 108.532% and 181.434% and 162.892% and 172.846% and 114.329% and 178.329%
fEPSP slope (normalized to baseline) ([3]; AS283 30uM, Time (min) -4): 104.315% and 98.2615% and 101.701% and 97.3586% and 99.2226% and 91.7266% and 101.169%
fEPSP slope (normalized to baseline) ([3]; AS283 30uM, Time (min) -5): 101.784% and 110.1% and 99.6307% and 92.306% and 111.307% and 95.4361% and 105.648%
fEPSP slope (normalized to baseline) ([3]; AS283 30uM, Time (min) -6): 100.097% and 110.1% and 101.96% and 97.1642% and 103.039% and 95.0989% and 110.591%
fEPSP slope (normalized to baseline) ([3]; AS283 30uM, Time (min) -7): 104.877% and 108.522% and 113.432% and 111.35% and 97.9505% and 103.53% and 108.737%
fEPSP slope (normalized to baseline) ([3]; AS283 30uM, Time (min) -8): 104.034% and 98.6561% and 118.004% and 96.7756% and 91.5901% and 101.506% and 110.436%
fEPSP slope (normalized to baseline) ([3]; AS283 30uM, Time (min) -9): 106.283% and 106.154% and 107.653% and 91.3344% and 103.039% and 101.844% and 106.575%
fEPSP slope (normalized to baseline) ([3]; AS283 30uM, Time (min) -10): 103.19% and 102.997% and 101.442% and 97.5529% and 105.583% and 95.4361% and 107.965%
fEPSP slope (normalized to baseline) ([3]; AS283 30uM, Time (min) -11): 100.66% and 97.0777% and 100.58% and 104.937% and 103.675% and 93.0755% and 112.753%
fEPSP slope (normalized to baseline) ([3]; AS283 30uM, Time (min) -12): 100.379% and 102.602% and 99.6307% and 99.8848% and 96.6784% and 98.4712% and 119.858%
fEPSP slope (normalized to baseline) ([3]; AS283 30uM, Time (min) -13): 101.784% and 99.0508% and 93.2474% and 96.5813% and 96.6784% and 98.8084% and 114.606%
effect on LTP induction in WT mice ([3]; AS283 10 or 30 µM): failed to block
